The values below come from patent US12594319B2, “Pharmaceutical development” (HELPERBY THERAPEUTICS LIMITED, priority 2019, dated 2026).

The subject of data set [1] is sensitive micro-organisms. Conditions: cited from earlier work; for Potency: general value of the art.
The conditions of data set [2]: aqueous solutions; Wallace et al. 2010; cited from earlier work.
A short description of data set [3]: Determination of free colistin (turbidity) according to European Pharmacopeia 9.5. The format is physicochemical. Conditions: free colistin assay. Here is the method:
Determination of free colistin was performed according to European Pharmacopeia 9.5 (July 2017:0319).
1.0 g of hydrazine sulfate was dissolved in purified water, diluted to 100.0 mL with the same solvent and allowed to stand for 4-6 h.
2.5 g of hexamethylene tetramine was dissolved in 25.0 mL purified water in a 100 mL glass-stoppered volumetric flask.
25.0 mL hydrazine sulfate solution was added to the hexamethylene tetramine solution in the volumetric flask, mixed and allowed to stand for 24 h.
15.0 mL of the primary opalescent suspension was diluted to 1000.0 mL with purified water. This suspension was freshly prepared and stored for a maximum of 24 h.
Reference suspensions according to Table 6 were prepared for calibration of the turbidity meter.
One lyophilisate containing 240 mg CMS was dissolved in 10 mL purified water. CMS BDS was analyzed by dissolving 80 mg of CMS BDS in 3 mL purified water. After complete dissolution, 0.1 mL […] silicotungstic acid was added to 3 mL of the test sample (either reconstituted lyophilisate or dissolved BDS). The turbidity of the sample was recorded after 10 s-20 s.
Determination of free colistin was performed according to European Pharmacopeia 9.5 (July 2017:0319). The hydrazine sulfate solution, hexamethylene tetramine solution, primary opalescent suspension, standard of opalescence, and reference suspensions were prepared as in Example 2. […]

For data set [4] the following is noted: buffered aqueous system. The protocol:
A two component buffer system consisting of acetate and phosphate (5 mM acetate and 5 mM phosphate) was used to cover a pH range of about 4.5 to 7.5. After complete dissolution of the solid, the pH was adjusted to the desired pH value using hydrochloric acid.

Data set [5] in a line: Solubility screening in organic solvent system (tert-butanol/water). The protocol: Substances were dissolved in an appropriate volume to justify the use of an organic solvent based system (reduction of the fill volume per vial by a factor of 4, ˜5 mL fill volume in organic solvent based systems). Samples were tested for stability of the APIs in solution when stored for 24 h at 2 to 8° C. and 25° C. […] The chromatographic conditions were the same as set out above for Example 1A.

Data set [6] is described as follows: RP-HPLC for related substances of zidovudine (Ph. Eur. 9.5) after lyophilisation. The data set is classed as physicochemical. The note with it: aqueous lyo solution. The protocol: RP-HPLC chromatography for quantity and purity of zidovudine was performed according to monograph Ph. Eur. 9.5 (January 2017:1059). The following chromatographic conditions were used for the analysis.
• XTerra RP18 VanGuard cartridge, 3.9×5 mm, 5 μm Mobile phase A 2 g/L ammonium acetate, pH 6.8 Mobile phase B Acetonitrile
Mobile phase A was prepared by dissolving 2 g ammonium acetate in 800 mL of purified water, pH was adjusted to 6.8 with acetic acid. The solution was made up to 1 L with purified water.
Diluent was prepared by mixing 76 mL mobile phase A with 4 mL of ACN and 20 mL methanol.
Reference solution A: 2 mg of impurity C and 2 mg of impurity B were dissolved in 50 mL diluent. 1 mL of this solution was diluted with 19 mL diluent.

Where “and” joins values, the source holds several entries; their conditions need not be identical. Equal values may be shown once.

Turning to colistin sulfate, in data set [1], the Potency result is given as “around 20,500 IU/mg”.
For the compound colistimethate sodium [CMS], in data set [1], the Potency entry is “around 12,500 IU/mg”. The “Concentration in aqueous solution above which CMS is stable against hydrolysis due to the formation of micelles” value in data set [2] was “above 3.5 mM and ~5.7 mg/mL”. The “Acceptance criteria/not more turbid than standard of opalescence II” value in data set [3] (Table 8 (Example 2)) is reported as “yes”. This compound gave a Turbidity in data set [3] (Table 8, organic solvent system lyophilisation (Example 2)) of 5.5 NTU. Moreover, in data set [4], the “Effect on pH of the solution / buffer capacity” value is recorded as “strong buffer capacity at neutral to slightly basic pH values”. The “Solubility in TBA/water, all TBA concentrations” value in data set [5] is “soluble in all TBA concentrations”. The “Dissolution time in TBA/water” value in data set [5] (20% to 60% (w/w) TBA, 5 mL) is “within a few minutes”.
Turning to `Cc1cn([C@H]2C[C@H](N=[N+]=[N-])[C@@H](CO)O2)c(=O)[nH]c1=O` [Zidovudine], the “Stability of zidovudine during the lyophilisation process” value in data set [6] is listed as “stable during the lyophilisation process”.
As to polymyxin B, the “International Units equivalent to 1 mg” value in data set [1] (generally accepted in the art) was “approximately 10,000 IU”.
